“And” between values parts separate entries of the source, which are not always exact repeats. Identical values can stand only once. Like-named read-outs stand apart in the source and are kept apart here.
Experiments:
[1] = system: normal mouse splenocytes; experiment: Cytokine release from murine splenocytes; format: cell-based, C57BL6 mice; conditions: 24 hours culture with test compound
Method: The ability of compounds to stimulate cytokine release from splenocytes can be assessed in a mouse model. Spleen cells harvested from C57BL6 mice are cultured for 24 hours in RPMI 1640 cell culture medium containing 5% FBS, 1 mM sodium pyruvate, 2 mM L-glutamine, 100 U/ml penicillin/streptomycin and 50 μM beta-mercaptoethanol, various concentrations of test compound for 20-24 hours, after which the cell culture supernatant is tested for the presence of cytokines.
Spleen cells harvested from mice were cultured for 24 house with test compound and the supernatant was tested for release of cytokines.

[2] = system: THP-1 cells; experiment: TNF-alpha promoter secreted alkaline phosphatase (TNF-PLAP) reporter in THP-1 cells; format: cell-based, human; conditions: for stimulation of alkaline phosphatase expression from TNF promoter reporter (TNF-PLAP): absence and presence of 10% serum, FIG. 3
Method: Similar results can be obtained when compounds of the invention are tested in a cell-culture model. In this assay, compounds of the invention are tested for their ability to stimulate secretion of alkaline phosphatase from THP-1 cells that have been transfected with the gene for secreted alkaline phosphatase under the control of the TNF-alpha promoter, as described in detail in Goto et al., Molecular Pharmacology 49; 860-873 (1996). In this assay, however, the effects of removing serum^1—a condition that may more-likely mimic a subcutaneous environment—can be evaluated. As shown in FIG. 2 and described in Table 1, results from these assays indicate that compounds of the invention stimulate induction of genes under the control of the TNF-alpha promoter when added to cells in the absence as well as the presence of serum. ^1 This is important to determine if serum components such as lipopolysaccharide binding protein are necessary for drug activity.

[3] = system: mouse macrophage line RAW 264.7; experiment: Tolerization to TLR family ligands, TNF-alpha release; format: cell-based; conditions: pretreated 24 hours at 0.1 μg/mL
Method: Cells of the mouse macrophage line RAW 264.7 were plated in RPMI 1640 complete culture medium (10% fetal bovine serum, 1 mM sodium pyruvate, 2 mM L-glutamine, 100 U/mL penicillin/streptomycin and 50 μM β-mercaptoethanol). Cells were treated for 24 hours with the TLR4 ligand ER-803022 at 0.1 μg/mL by addition of a concentrated stock solution. Negative control cells were treated with an equivalent volume of PBS. After 24 hours, cells were washed twice in RPMI 1640 complete medium and incubated in medium alone for 3 hours. Cultures were then restimulated with the following synthetic TLR ligands: lipopeptide (S-lipo, a ligand for TLR2) at 0.1 μg/mL, ER-803022 at 0.1 μg/mL, a mouse CpG oligonucleotide of the sequence […] (a ligand of murine TLR9) at 0.5 μg/mL, or PBS. Supernatants were taken at 3 and 4 hours and cytokine levels were determined by ELISA.

[4] = system: Human Whole Blood; experiment: Cytokine release in human whole blood (ELISA); format: cell-based; conditions: for EC50: whole blood, vs. % of LPS at 10 ng/ml, read-out: WB ED50 vs LPS@ 10 ng/ml; for TNF-alpha release in whole blood at 10 μM compound (% of 10 ng/ml LPS response): compounds tested at 10 μM, compared to 10 ng/ml LPS, 3-hour incubation
Method: The most readily available human system to test compound activity on monocytes/macrophages is in whole blood. Various concentrations of compounds of the invention were added as 10× stocks in 50 μl of Ca^++, Mg^++-free Hank's balanced salt solution (HBSS) followed by 50 μl of HBSS into 400 μl of heparinized whole blood obtained from normal volunteers (18-51 years old; 110-230 lb.) into the wells of plastic assay plates, for a total volume of 500 μl/well (final concentration of whole blood was 80%). After a 3-hour incubation with gentle shaking at 37° C. in a 5% CO2 atmosphere, the assay plates were centrifuged at 1000×g for 10 min. at 4° C. and plasma was drawn off and frozen at −80° C. Plasma samples were analyzed for TNF-alpha, IL-10, and IL-12 by ELISA (Genzyme Corp., Cambridge, Mass.). Each assay point was tested in triplicate.
This stimulatory activity can be compared to that of 10 ng/ml endotoxin (or LPS) present in similar incubations in the same assay.

[5] = system: EGFRvIII peptide; experiment: EGFRvIII peptide-specific antibody titers after immunization (ELISA); format: in vivo, C57/BL6J mice; conditions: s.c. with 25 μg peptide-KLH, 804057 3 μg, GM-CSF 5 μg
From the text: To determine whether an adjuvant can enhance the effect of an oncology antigen (i.e., an antigen that can be used to vaccinate a subject individual against a cancer), C57/BL6J mice were immunized subcutaneously with a tumor-associated peptide, LEEKKGNYVVTDHC (SEQ ID NO:2) (derived from a mutant form of EGFR, […]) conjugated to the protein carrier keyhole limpet hemocyanin (KLH), with or without Compound 804057 or murine GM-CSF, a cytokine used in cancer vaccine trials to boost immune response. Compound 804057 was dosed at 3 μg, GM-CSF at 5 μg and the peptide-KLH conjugate at 25 μg per dose. Mice were immunized three times at intervals of three weeks. Serum was prepared from mice two weeks after each immunization and tested for […] peptide-specific antibodies using ELISA on plates coated with EGFRvIII peptide conjugated to bovine serum albumin. The results in Table 3 are presented as titers from individual animals. The titer is defined as the last serum dilution at which a signal at 0.25 OD units above background was observed.

[6] = titer = last serum dilution 0.25 OD above background

Molecule: CCCCCC/C=C\CCCC(=O)O[C@H](CCCCCCC)CCOCC(COP(=O)([O-])OCCNC(=O)CCCCCCCCC(=O)NCCOP(=O)([O-])OCC(COCC[C@@H](CCCCCCC)OC(=O)CCC/C=C\CCCCCC)NC(=O)CC(=O)CCCCCCCCCCC)NC(=O)CC(=O)CCCCCCCCCCC.[Na+].[Na+] (stereo partly shown) [ER 111231]
- IL-10 release from splenocytes [1]: stimulated
- interferon-gamma release from splenocytes [1]: stimulated

Molecule: CCCCCC/C=C\CCCC(=O)O[C@H](CCCCCCC)CCOCC(COP(=O)([O-])OCCNC(=O)NCCOP(=O)([O-])OCC(COCC[C@@H](CCCCCCC)OC(=O)CCC/C=C\CCCCCC)NC(=O)CC(=O)CCCCCCCCCCC)NC(=O)CC(=O)CCCCCCCCCCC.[Na+].[Na+] (stereo partly shown) [ER 111232]
- IL-10 release from splenocytes [1]: stimulated
- interferon-gamma release from splenocytes [1]: stimulated
- stimulation of alkaline phosphatase expression from TNF promoter reporter (TNF-PLAP) [2]: stimulation of alkaline phosphatase expression

Molecule: CCCCCCCCCCCC(=O)CC(=O)NC(COCC[C@@H](CCCCCCC)OC(=O)CCCCCCCCCCC)COP(=O)([O-])OCCNC(=O)NCCOP(=O)([O-])OCC(COCC[C@@H](CCCCCCC)OC(=O)CCCCCCCCCCC)NC(=O)CC(=O)CCCCCCCCCCC.[Na+].[Na+] (stereo partly shown) [ER 112066]
- IL-10 release from splenocytes [1]: stimulation of IL-10 release
- interferon-gamma release from splenocytes [1]: stimulation of interferon-gamma release
- stimulation of alkaline phosphatase expression from TNF promoter reporter (TNF-PLAP) [2]: stimulation of alkaline phosphatase expression

Molecule: CCCCCC/C=C\CCCC(=O)O[C@H](CCCCCCC)CCOCC(COP(=O)([O-])OCCNC(=O)CC(=O)NCCOP(=O)([O-])OCC(COCC[C@@H](CCCCCCC)OC(=O)CCC/C=C\CCCCCC)NC(=O)CC(=O)CCCCCCCCCCC)NC(=O)CC(=O)CCCCCCCCCCC.[Na+].[Na+] (stereo partly shown) [ER 113651]
- IL-10 release from splenocytes [1]: stimulated
- interferon-gamma release from splenocytes [1]: stimulated

Molecule: CCCCCCCCCCCCCC(=O)N[C@H](COCC[C@@H](CCCCCCC)OC(=O)CCCCCCCCCCC)COP(=O)([O-])OCCNC(=O)NCCOP(=O)([O-])OC[C@@H](COCC[C@@H](CCCCCCC)OC(=O)CCCCCCCCCCC)NC(=O)CCCCCCCCCCCCC.[Na+].[Na+] [ER 803022]
- TNF-alpha release in response to CpG oligonucleotide, a TLR9 ligand ([3]; restimulated with CpG 0.5 μg/mL): diminished release of TNF-alpha
- TNF-alpha release upon subsequent exposure to ER803022 (TLR4 ligand) ([3]; restimulated with ER-803022 0.1 μg/mL, vs not pretreated): released less TNF-alpha
- TNF-alpha release in response to TLR2 ligand S-lipoprotein ([3]; restimulated with S-lipo 0.1 μg/mL): diminished release of TNF-alpha

Molecule: CCCCCC/C=C\CCCC(=O)O[C@H](CCCCCCC)CCOCC(COP(=O)([O-])OCCNC(=O)CCCCCCCCC(=O)NCCOP(=O)([O-])OCC(COCC[C@@H](CCCCCCC)OC(=O)CCC/C=C\CCCCCC)NC(=O)CC(=O)CCCCCCCCCCC)NC(=O)CC(=O)CCCCCCCCCCC.[Na+].[Na+] (stereo partly shown) [compound 111231]
- EC50 [4]: 290 nM
- THP-1 cell Stimulation (% of compound 100 at 10 μM) +serum [2]: 17 % of compound 100 at 10 μM

Molecule: CCCCCC/C=C\CCCC(=O)O[C@H](CCCCCCC)CCOCC(COP(=O)([O-])OCCNC(=O)NCCOP(=O)([O-])OCC(COCC[C@@H](CCCCCCC)OC(=O)CCC/C=C\CCCCCC)NC(=O)CC(=O)CCCCCCCCCCC)NC(=O)CC(=O)CCCCCCCCCCC.[Na+].[Na+] (stereo partly shown) [compound 111232]
- TNF-alpha release in whole blood at 10 μM compound (% of 10 ng/ml LPS response) [4]: 158 % of LPS
- THP-1 cell Stimulation (% of compound 100 at 10 μM) +serum [2]: 155 % of compound 100 at 10 μM
- THP-1 cell Stimulation (% of compound 100 at 10 μM) −serum [2]: 225 % of compound 100 at 10 μM

Molecule: CCCCCC/C=C\CCCC(=O)O[C@H](CCCCCCC)CCOCC(COP(=O)([O-])OCCNC(=O)CCC(=O)NCCOP(=O)([O-])OCC(COCC[C@@H](CCCCCCC)OC(=O)CCC/C=C\CCCCCC)NC(=O)CC(=O)CCCCCCCCCCC)NC(=O)CC(=O)CCCCCCCCCCC.[Na+].[Na+] (stereo partly shown) [compound 111233]
- THP-1 cell Stimulation (% of compound 100 at 10 μM) +serum [2]: 141 % of compound 100 at 10 μM

Molecule: CCCCCCCCCCCC(=O)CC(=O)NC(COCC[C@@H](CCCCCCC)OC(=O)CCCCCCCCCCC)COP(=O)([O-])OCCNC(=O)NCCOP(=O)([O-])OCC(COCC[C@@H](CCCCCCC)OC(=O)CCCCCCCCCCC)NC(=O)CC(=O)CCCCCCCCCCC.[Na+].[Na+] (stereo partly shown) [compound 112066]
- TNF-alpha release in whole blood at 10 μM compound (% of 10 ng/ml LPS response) [4]: 162 % of LPS
- EC50 [4]: 40 nM
- THP-1 cell Stimulation (% of compound 100 at 10 μM) +serum [2]: 330 % of compound 100 at 10 μM

Molecule: CCCCCC/C=C\CCCC(=O)O[C@H](CCCCCCC)CCOCC(COP(=O)([O-])OCCNC(=O)CC(=O)NCCOP(=O)([O-])OCC(COCC[C@@H](CCCCCCC)OC(=O)CCC/C=C\CCCCCC)NC(=O)CC(=O)CCCCCCCCCCC)NC(=O)CC(=O)CCCCCCCCCCC.[Na+].[Na+] (stereo partly shown) [compound 113651]
- TNF-alpha release in whole blood at 10 μM compound (% of 10 ng/ml LPS response) [4]: 133 ± 4.4 (n = 4) % of LPS
- EC50 [4]: 700 nM
- THP-1 cell Stimulation (% of compound 100 at 10 μM) +serum [2]: 215 % of compound 100 at 10 μM
- THP-1 cell Stimulation (% of compound 100 at 10 μM) −serum [2]: 254 % of compound 100 at 10 μM

Molecule: CCCCCCCCCCCCC(O)C(=O)N[C@H](COCC[C@@H](CCCCCCC)OC(=O)CCCCCCCCCCC)COP(=O)(O)OCCNC(=O)NCCOP(=O)(O)OC[C@@H](COCC[C@@H](CCCCCCC)OC(=O)CCCCCCCCCCC)NC(=O)C(O)CCCCCCCCCCCC (stereo partly shown) [compound 804313]
- EC50 [4]: 14 nM

Molecule: CCCCCCCCCCCCCCN(C(C)=O)[C@H](COCC[C@@H](CCCCCCC)OC(=O)CCCCCCCCCCC)COP(=O)(O)OCCNC(=O)NCCOP(=O)(O)OC[C@@H](COCC[C@@H](CCCCCCC)OC(=O)CCCCCCCCCCC)N(CCCCCCCCCCCCCC)C(C)=O [compound 804339]
- EC50 [4]: 1060 nM

Molecule: CCCCCCCCCCCCCC(=O)N[C@H](COCC[C@@H](CCCCCCC)OCCCCCCCCCCCC)COP(=O)(O)OCCNC(=O)NCCOP(=O)(O)OC[C@@H](COCC[C@@H](CCCCCCC)OCCCCCCCCCCCC)NC(=O)CCCCCCCCCCCCC [compound 804372]
- EC50 [4]: 400 nM

Molecule: CCCCCCCCCCCCCC(=O)N[C@@H](CC[N+](C)(C)CCCNC(=O)NCCC[N+](C)(C)CC[C@@H](COC(=O)C[C@@H](CCCCCCC)OC(=O)CCCCCCCCCCC)NC(=O)CCCCCCCCCCCCC)COC(=O)C[C@@H](CCCCCCC)OC(=O)CCCCCCCCCCC [compound 804947]
- EC50 ([4]; Homo sapiens): > 10000 nM

B1: GM-CSF: murine GM-CSF, a cytokine used in cancer vaccine trials to boost immune response (protein, UniProt P01587 18-141, looked up)
Granulocyte-macrophage …: APTRSPITVTRPWKHVEAIKEALNLLDDMPVTLNEEVEVVSNEFSFKKLTCVQTRLKIFEQGLRGNFTKLKGALNMTASYYQTYCPPTPETDCETQVTTYADFIDSLKTFLTDIPFECKKPGQK
- Geometric mean titer, IgG1 [5]: 24000
- Geometric mean titer, IgG2a [5]: 3568
- Antibody titers to EGFRvIII peptide, IgG1, individual animals [5, 6]: 12000 (3×) and 24000 (2×) and 48000 (3×)
- Antibody titers to EGFRvIII peptide, IgG2a, individual animals [5, 6]: 3000 (2×) and 6000 (3×) and 24000 and 750 (2×)

From patent US7915238B2, “Immunomodulatory compounds and methods of use thereof” (Eisai R & D Management Co., Ltd., priority 1999, dated 2011)
